Laboratory results from patent US11472838B2, “Inhibitors of blood coagulation factor XIII” (Zedira GmbH, priority 2018, dated 2022).
Where two headings read alike, the source gives them in different places. *1 amine or outer side, *2 acyl side, *3 side chain or, on linkers, in order; H or OH if unused. Where a SMILES comes first, the peptide text is derived from it. [ ]: non-standard residue; d: D form. The star is where a group is joined. ξ: configuration not given here. Benzoyl(2-COOH,5-NO2) = O=C(O)c1ccc([N+](=O)[O-])cc1C(=O)*; Nle(5E-ene,6-CO2Et) = CCOC(=O)/C=C/CC[C@H](N)C(=O)O; Isonicotinoyl(3-COOH) = O=C(O)c1cnccc1C(=O)*; X1 = COC(=O)/C=C/CC[C@H](N[*:1])C(=O)[*:2]; Pro(4-methylene) = C=C1CN[C@H](C(=O)O)C1; X2 = O=C(O)c1cc([N+](=O)[O-])ccc1C(=O)*; Pro(4-oxo) = O=C1CN[C@H](C(=O)O)C1; Thiophene2carbonyl = O=C(c1cccs1)*; Ala(cPr) = N[C@@H](CC1CC1)C(=O)O; Thr(3ξ) = CC(O)[C@H](N)C(=O)O; Chg = N[C@H](C(=O)O)C1CCCCC1; Tle = CC(C)(C)[C@H](N)C(=O)O; Pip = O=C(O)[C@@H]1CCCCN1; Nle = CCCC[C@H](N)C(=O)O; Cbz = O=C(OCc1ccccc1)*

Columns and labels:
[1] = target: FXIII (Homo sapiens (Human), UniProt P00488); assay: Inhibitory activity against FXIII (isopeptidase assay), Tables 3 and 4; format: biochemical;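 further: FXIIIa activity read with a peptide substrate derived from the α2-antiplasmin N-terminal dodecapeptide, FXIII activated beforehand at room temperature, inhibitor-free wells with DMSO buffer as control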
Protocol: (§1) FXIIIa activity has been determined using substrate A101 (Zedira GmbH, Darmstadt, Germany), which is based on the N-terminal dodecapeptide of α2-antipiasmin.
(§2) The mixture was incubated for 20 min at room temperature to activate FXIII. […] For measurements without inhibitor, 15 μL of assay buffer/2% (v/v) DMSO were added. All measurements were performed in triplicate. The respective IC50 values were calculated by non-linear regression using the MARS software package (BMG Labtech).

[2] = target: TG2 (Homo sapiens (Human), UniProt P21980); assay: Inhibitory activity against TG2 (isopeptidase assay), Tables 3 and 4; format: biochemical; details: for Selectivity: TG2 versus FXIII
Protocol: as §1, §2

[3] = in vitro
Protocol: Further, the stability of compounds in plasma was determined as prerequisite for drug-likeness. Briefly, after spiking the chemical entities, the plasma was incubated at 37° C. At certain time points (e.g. at 15 and 120 minutes), 3 vol. cold MeOH were added to extract the compounds. After centrifugation, the supernatant was analyzed by HPLC. The half life was calculated based on the respective calibration curve.

[4] = isopeptidase assay, Table 3, read-out: IC50 [nM] TG2
[5] = isopeptidase assay, Table 3, read-out: IC50 [nM] FXIII

Sequence of FXIII (P00488 39-732): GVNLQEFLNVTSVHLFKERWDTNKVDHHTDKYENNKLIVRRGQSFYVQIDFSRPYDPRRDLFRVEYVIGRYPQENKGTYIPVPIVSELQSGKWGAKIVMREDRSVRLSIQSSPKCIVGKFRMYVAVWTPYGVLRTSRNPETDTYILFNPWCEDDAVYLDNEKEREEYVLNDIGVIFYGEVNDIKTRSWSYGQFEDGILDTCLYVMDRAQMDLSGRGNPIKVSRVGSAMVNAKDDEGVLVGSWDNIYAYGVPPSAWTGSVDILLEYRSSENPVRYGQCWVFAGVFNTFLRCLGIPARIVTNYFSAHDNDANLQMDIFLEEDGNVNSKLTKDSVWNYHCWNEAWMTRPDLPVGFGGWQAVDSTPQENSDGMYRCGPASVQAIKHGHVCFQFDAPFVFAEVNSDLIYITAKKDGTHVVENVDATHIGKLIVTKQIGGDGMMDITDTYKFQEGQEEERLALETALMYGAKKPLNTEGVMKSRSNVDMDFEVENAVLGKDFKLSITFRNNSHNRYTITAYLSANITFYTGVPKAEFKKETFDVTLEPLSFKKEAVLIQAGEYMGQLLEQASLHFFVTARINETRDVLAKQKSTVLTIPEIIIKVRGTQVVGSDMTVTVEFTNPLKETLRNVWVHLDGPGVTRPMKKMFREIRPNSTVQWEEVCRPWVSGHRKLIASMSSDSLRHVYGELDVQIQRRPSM
Sequence of TG2 (P21980 whole entry): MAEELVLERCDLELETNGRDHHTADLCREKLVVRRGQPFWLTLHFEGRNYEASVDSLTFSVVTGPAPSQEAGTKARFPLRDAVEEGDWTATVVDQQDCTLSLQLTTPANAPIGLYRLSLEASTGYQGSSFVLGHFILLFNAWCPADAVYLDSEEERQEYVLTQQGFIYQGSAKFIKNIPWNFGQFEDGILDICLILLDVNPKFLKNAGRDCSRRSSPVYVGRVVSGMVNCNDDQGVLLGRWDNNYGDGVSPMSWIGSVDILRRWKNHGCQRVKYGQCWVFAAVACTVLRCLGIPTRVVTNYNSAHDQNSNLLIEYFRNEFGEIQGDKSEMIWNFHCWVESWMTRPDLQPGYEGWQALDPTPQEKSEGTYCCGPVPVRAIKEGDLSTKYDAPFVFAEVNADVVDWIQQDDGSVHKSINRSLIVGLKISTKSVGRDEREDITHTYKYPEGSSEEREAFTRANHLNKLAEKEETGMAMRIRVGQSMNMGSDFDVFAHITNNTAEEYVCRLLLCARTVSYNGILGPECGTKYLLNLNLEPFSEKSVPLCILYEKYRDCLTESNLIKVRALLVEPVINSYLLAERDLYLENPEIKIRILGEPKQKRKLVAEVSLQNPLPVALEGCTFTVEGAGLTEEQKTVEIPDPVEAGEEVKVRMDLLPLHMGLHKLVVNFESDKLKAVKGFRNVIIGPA

Row | SMILES | IC50 ([1]; Table 4, read-out: FXIII IC50) [nM] | Selectivity ([2]; Table 4) | IC50 ([2]; Table 4, read-out: TG2 IC50) [nM] | further results
1 | CCC(CC)CNC(=O)Cn1cccc(NC(=O)[C@H](CC/C=C/C(=O)OC)NC(=O)c2cncn2C)c1=O [Ref. 25] | > 10 |  |  | 
2 | COC(=O)/C=C/CC[C@H](NC(=O)[C@H](CC(N)=O)NC(C)=O)C(=O)N[C@@H](CCC(=O)O)C(=O)N[C@@H](CCC(N)=O)C(=O)N[C@H](C(=O)N[C@@H](CO)C(=O)N1CCC[C@H]1C(=O)N[C@@H](CC(C)C)C(=O)N[C@H](C(=O)N[C@@H](CC(C)C)C(=O)O)C(C)O)C(C)C (stereo partly drawn) [Ref. 19, reference compound] (Ac-N[X1]EQVSPL[Thr(3ξ)]L-OH) | 4980 | 0.07 | 370 | 
3 | CCCC[C@H](NC(=O)[C@H](CC/C=C/C(=O)OC)NC(=O)[C@@H](CC(=O)O)NC(C)=O)C(=O)N[C@@H](CCCC)C(=O)N[C@@H](CC(C)C)C(=O)N1CCC[C@H]1C(=O)N[C@@H](Cc1c[nH]c2ccccc12)C(=O)O [Ref. 13, reference compound] (Ac-[dD][X1][Nle][Nle]LPW-OH) | 465 | 6.02 | 2800 | half-life ([3]; plasma): < 15 min
4 | COC(=O)/C=C/CC[C@H](NC(=O)c1ccncc1C(=O)O)C(=O)N[C@@H](CCSC)C(=O)N1CC(=O)C[C@H]1C(=O)N[C@H](C(=O)N[C@H](C(N)=O)C1CCCCC1)C1CCCCC1 [37a/b] ({Isonicotinoyl(3-COOH)}-[X1]M[Pro(4-oxo)][Chg][Chg]-NH2) |  |  |  | recovery in plasma determined by HPLC ([3]; plasma, 37° C., over a period of 2 hours): > 75%; Selectivity ([2]; isopeptidase assay, Table 3): 4.7; IC50 [2, 4]: 324 nM; IC50 [1, 5]: 69 nM
5 | CCOC(=O)/C=C/CC[C@H](NC(=O)OCc1ccccc1)C(=O)N[C@H](C(=O)N1CCC[C@H]1C(=O)N[C@@H](CC(C)C)C(=O)N[C@H](C(N)=O)C1CCCCC1)C1CCCCC1 [Ref. 12, reference compound] (Cbz-[Nle(5E-ene,6-CO2Et)][Chg]PL[Chg]-NH2) | 6770 | 0.05 | 345 | 
6 | CCOC(=O)/C=C/CC[C@H](NC(=O)OCc1ccccc1)C(=O)N[C@H](C(=O)N1CCC[C@H]1C(=O)N[C@@H](CC(C)C)C(=O)N[C@H](C(N)=O)C1CCCCC1)C(C)C [Ref. 08, reference compound] (Cbz-[Nle(5E-ene,6-CO2Et)]VPL[Chg]-NH2) | 3650 | 0.01 | 36 | 
7 | CCOC(=O)/C=C/CC[C@H](NC(=O)c1cccs1)C(=O)N[C@@H](CCC(N)=O)C(=O)N1CCC[C@H]1C(=O)N[C@@H](CC(C)C)C(=O)N[C@H](C(N)=O)C1CCCCC1 [Ref. 11, reference compound] (Thiophene2carbonyl-[Nle(5E-ene,6-CO2Et)]QPL[Chg]-NH2) | 5360 | 0.05 | 253 | 
8 | CCOC(=O)/C=C/CC[C@H](NC(=O)c1cccs1)C(=O)N[C@@H](CC1CC1)C(=O)N1CCC[C@H]1C(=O)N[C@@H](CC(C)C)C(=O)N[C@H](C(N)=O)C1CCCCC1 [Compound 41] (Thiophene2carbonyl-[Nle(5E-ene,6-CO2Et)][Ala(cPr)]PL[Chg]-NH2) |  |  |  | recovery at 2 h [3]: > 75%
9 | CCOC(=O)/C=C/CC[C@H](NC(=O)OCc1ccccc1)C(=O)N[C@H](C(=O)N1CCCC[C@H]1C(=O)N[C@@H](CC(C)C)C(=O)OC)C(C)C [Ref. 6, reference compound] (Cbz-[Nle(5E-ene,6-CO2Et)]V[Pip]L-OMe) |  |  |  | IC50 [2, 4]: 48 nM; IC50 [1, 5]: > 10000 nM
10 | C=C1C[C@@H](C(=O)N[C@@H](CC(C)C)C(=O)N[C@H](C(N)=O)C2CCCCC2)N(C(=O)[C@@H](NC(=O)[C@H](CC/C=C/C(=O)OCC)NC(=O)c2cc([N+](=O)[O-])ccc2C(=O)O)C(C)(C)C)C1 [Compound 42b] ({Benzoyl(2-COOH,5-NO2)}-[Nle(5E-ene,6-CO2Et)][Tle][Pro(4-methylene)]L[Chg]-NH2) |  |  |  | recovery at 2 h [3]: > 75%
11 | COC(=O)/C=C/CC[C@H](NC(=O)[C@H](CC(N)=O)NC(C)=O)C(=O)N[C@@H](CCC(=O)O)C(=O)N[C@@H](CCC(N)=O)C(=O)N[C@H](C(=O)N[C@@H](CO)C(=O)N1CCC[C@H]1C(=O)N[C@@H](CC(C)C)C(=O)N[C@H](C(=O)O)C(C)O)C(C)C (some centres unmarked) [Ref. 20, reference compound] (Ac-N[X1]EQVSPL[Thr(3ξ)]-OH) | 8480 | 0.04 | 381 | 
12 | C=C1C[C@@H](C(=O)N[C@@H](CC(C)C)C(=O)N[C@H](C(N)=O)C2CCCCC2)N(C(=O)[C@@H](NC(=O)[C@H](CC/C=C/C(=O)OCC)NC(=O)c2ccc([N+](=O)[O-])cc2C(=O)O)C(C)(C)C)C1 [Compound 42a] (X2-[Nle(5E-ene,6-CO2Et)][Tle][Pro(4-methylene)]L[Chg]-NH2) |  |  |  | recovery at 2 h [3]: > 75%
